# System: F98 rat glioblastoma cells
# Experiment: 3H-thymidine incorporation into DNA (DNA synthesis), with or without radiation
# Assay type: cell-based
# Details: 100 nM 4-HT versus vehicle, no radiation (FIG. 6B)
# Method: To investigate whether DNA synthesis of glioblastoma cells is modified by SUMO conjugation, the effects of suppressing SUMO conjugation on the incorporation of ^3H-thymidine into DNA was evaluated. SUMO conjugation was suppressed by blocking its expression using a miRNA approach. To avoid the risk of adaptive processes taking place in cells where SUMO expression had been silenced during the long selection process for stably transfected cells, a 4-hydroxy tamoxifen (4-HT)-inducible lentiviral system was used to express designed miRNAs (Callus et al., Cell Death Diff. 15: 213-219 (2008)). Briefly, the 4-HT inducible lentiviral system utilizes two constructs and the UAS/GAL4 system. […]
# The effect of SUMO1/2/3 miRNA expression on radiation induced impairment of DNA synthesis was investigated by measuring the uptake of ^3H-thymidine. […] Irradiated cells were detached with trypsin-EDTA (Fisher Scientific), counted, re-suspended in culture medium with supplements described above, and re-plated in a 96-well plate at a density of 10,000 cells per well. […] Cells were harvested 24 hr later following detachment with trypsin-EDTA, collected on filter paper, dried overnight, and immersed in scintillation cocktail (ICN Biochemicals), and counted for 10 min in a liquid scintillation counter. […]
substance,measurement,value
4-hydroxy tamoxifen [4-HT],3H-thymidine incorporation into DNA,did not produce any major change

# From patent US9169519B2, “SUMO as a marker of cancer development and target for cancer therapy” (Duke University, priority 2010, dated 2015)
